Patent US20100144712A1 (priority 2007, published 2010)
Converted amounts (≈) assume the structure as drawn.

Key:
Type in all cases: cell-based
[1] = tested on: Candida albican ATCC 204276; assay: In vitro antifungal activity (MIC80), Candida albican ATCC 204276; conditions: ATCC204276, Table 2, 204276, read-out: Minimal inhibitory concentration (MIC80)
Experimental: (§1) In vitro antifungal activities of the inventive antifungal compounds were evaluated using test strains including Candida albican (ATCC 90873, 204276, 62342, 64124, 64550, 96901, MYA-573, MYA-574, MYA-575, MYA-576, MYA-1003) and Aspergillus fumigatus (ATCC 16424). Test samples and positive control samples were prepared by dissolving the inventive compounds and comparative compounds, i.e., amphotericin B, fluconazole and itraconazole, in DMSO, respectively, and each successively diluted with medium to obtain test and positive control solutions having test compound concentrations of 0.125 μg/ml to a maximum concentration not generating turbidity. Minimal inhibitory concentration (MIC80) of each compound was determined as the lowest concentration of the test compounds required to reduce growth by 80% relative to a control strain not treated.
(§2) 1) Test strain: Candida albican ATCC 90873, 204276, 62342, 64124, 64550, 96901, MYA-573, MYA-574, MYA-575, MYA-576, MYA-1003, and Aspergillus fumigatus ATCC 16424 were commercially obtained from The American Type Culture Collection (ATCC) and subcultured in CHEMON Co. Ltd. (amphotericin B was commercially purchased from Sigma, and fluconazole and itraconazole were prepared according to methods described in British Patent No. 2,099,818; and U.S. Pat. No. 4,267,179, respectively).
(§3) 2) Medium and culture condition: Candida albican was cultured in Sabourad Dextrose Agar, YM Agar or Potato Dextrose Agar according to ATCC information at a temperature of 37° C., 35° C., 30° C. or 25° C. Aspergillus fumigatus was cultured in Malt Extract Agar or Potato Dextrose Agar at a temperature ranging from 24 to 27° C.
(§4) 3) Preparation of test samples: the inventive compounds and comparative compounds were each diluted with DMSO to obtain 1 to 2 ml of a test sample in a concentration of 100-folds of the determining maximum concentration (256 μg/ml).
(§5) The test samples were each successively diluted with RPMI 1640 to obtain test solutions having concentrations of […] in a 12×75 mm sterilized disposable culture tube. The final concentration of DMSO was adjusted to […] (v/v).
(§6) 5) Preparation of strain solution and inoculation
(§7) Candida albican strains were each subcultured in Sabourad Dextrose Agar, YM Agar or Potato Dextrose Agar medium at 35° C. for 2˜3 days. In the case of yeasts, a single colony was taken from prominent colonies and suspended in 0.85% sterile physiological saline solution and the turbidity of the suspension was adjusted to 80˜82% at 530 nm, and then diluted 50-fold with RPMI 1640 medium to 1.0×10^3˜5.0×10^3 CFU/ml. The turbidity of fungi was adjusted to 80˜82% and the suspension was diluted 50-fold to […]. Aspergillus fumigatus strains were subcultured in Malt Extract Agar for 7˜10 days, and a single colony was taken from prominent colonies and suspended in 0.85% sterile physiological saline solution and the suspension was adjusted to 0.108 at 530 nm, and then diluted 1000-fold with RPMI 1640 medium to 0.4×10^2˜5×10^4 CFU/ml. The turbidity of fungi was adjusted to 80˜82% and the suspension was diluted 50-fold to 0.4102˜0.5104 CFU/ml.
(§8) The strain solutions thus obtained were each seeded into a sterilized 96-well microplate, 0.1 ml of each test solution were added thereto, and […] of alamarblue was treated to each well (Biosource, #DAL1100). This procedure was repeated 2 times.
(§9) Minimal inhibitory concentration (MIC80) of each compound was determined as the lowest concentration of the test compounds required to reduce growth by 80% relative to a control strain not treated.

[2] = tested on: Aspergillus fumigatus (ATCC 16424); assay: In vitro antifungal activity (MIC80), Aspergillus fumigatus ATCC 16424; conditions: Aspergillus fumigatus, ATCC16424, Table 2, ATCC 16424; read-out: Minimal inhibitory concentration (MIC80)
Experimental: as §1, §2, §3, §4, §5, §6, §7, §8, §9
MIC80 of each of the compounds of which antifungal activities can be confirmed by Table 2 was determined using other test strains, i.e., Aspergillus fumigatus ATCC 16424 and MYA-1163, Aspergillus terreus ATCC 28301, Aspergillus flavus ATCC MYA-1004, and Aspergillus niger ATCC 9142.

[3] = tested on: Candida albican ATCC 90873; assay: In vitro antifungal activity (MIC80), Candida albican ATCC 90873; conditions: Candida, ATCC90873; Table 2, ATCC 90873; read-out: Minimal inhibitory concentration (MIC80)
Experimental: as §1, §2, §3, §4, §5, §6, §7, §8, §9

[4] = tested on: Candida albican ATCC 64550; assay: In vitro antifungal activity (MIC80), Candida albican ATCC 64550; conditions: Candida, ATCC64550; Table 2, 64550; read-out: Minimal inhibitory concentration (MIC80)
Experimental: as §1, §2, §3, §4, §5, §6, §7, §8, §9

[5] = tested on: Candida albican ATCC MYA-576; assay: In vitro antifungal activity (MIC80), Candida albican ATCC MYA-576; conditions: Candida; Table 2, MYA 576; read-out: Minimal inhibitory concentration (MIC80)
Experimental: as §1, §2, §3, §4, §5, §6, §7, §8, §9

[6] = tested on: Candida albican ATCC 96901; assay: In vitro antifungal activity (MIC80), Candida albican ATCC 96901; conditions: Candida, ATCC96901; Table 2, ATCC 96901; read-out: Minimal inhibitory concentration (MIC80)
Experimental: as §1, §2, §3, §4, §5, §6, §7, §8, §9

[7] = tested on: Candida albican ATCC 62342; assay: In vitro antifungal activity (MIC80), Candida albican ATCC 62342; conditions: Candida, ATCC62342; Table 2, 62342; read-out: Minimal inhibitory concentration (MIC80)
Experimental: as §1, §2, §3, §4, §5, §6, §7, §8, §9

[8] = tested on: Candida albican ATCC MYA-1003; assay: In vitro antifungal activity (MIC80), Candida albican ATCC MYA-1003; conditions: Candida; Table 2, MYA 1003; read-out: Minimal inhibitory concentration (MIC80)
Experimental: as §1, §2, §3, §4, §5, §6, §7, §8, §9

[9] = tested on: Candida albican ATCC MYA-575; assay: In vitro antifungal activity (MIC80), Candida albican ATCC MYA-575; conditions: Candida; Table 2, MYA 575; read-out: Minimal inhibitory concentration (MIC80)
Experimental: as §1, §2, §3, §4, §5, §6, §7, §8, §9

[10] = tested on: Candida albican ATCC 64124; assay: In vitro antifungal activity (MIC80), Candida albican ATCC 64124; conditions: Candida, ATCC64124; Table 2, 64124; read-out: Minimal inhibitory concentration (MIC80)
Experimental: as §1, §2, §3, §4, §5, §6, §7, §8, §9

[11] = tested on: Candida albican ATCC MYA-574; assay: In vitro antifungal activity (MIC80), Candida albican ATCC MYA-574; conditions: Candida; Table 2, MYA 574; read-out: Minimal inhibitory concentration (MIC80)
Experimental: as §1, §2, §3, §4, §5, §6, §7, §8, §9

[12] = tested on: Candida albican ATCC MYA-573; assay: In vitro antifungal activity (MIC80), Candida albican ATCC MYA-573; conditions: Candida; Table 2, MYA 573; read-out: Minimal inhibitory concentration (MIC80)
Experimental: as §1, §2, §3, §4, §5, §6, §7, §8, §9

Row | SMILES | MIC80 [1] | MIC80 [2] | MIC80 [3] | MIC80 [4] | MIC80 [5] | MIC80 [6] | MIC80 [7] | MIC80 [8] | MIC80 [9] | MIC80 [10] | MIC80 [11] | MIC80 [12]
1 | C[C@@H](N1CCN(c2ccc3ccccc3n2)CC1)[C@](O)(Cn1cncn1)c1ccc(F)cc1F [Example 19, (2R,3R)-2-(2,4-difluorophenyl)-3-(4-(quinolin-2-yl)piperazin-1-yl)-1-(1H-1,2,4-triazol-1-yl)butan-2-ol] | 0.125 µg/mL (≈ 0.269 µM) | 0.125 µg/mL (≈ 0.269 µM) | 0.125 µg/mL (≈ 0.269 µM) | 0.5 µg/mL (≈ 1.08 µM) | 0.125 µg/mL (≈ 0.269 µM) | 0.5 µg/mL (≈ 1.08 µM) | 0.25 µg/mL (≈ 0.538 µM) | > 128 µg/mL | > 128 µg/mL | 4 µg/mL (≈ 8.61 µM) | > 128 µg/mL | 0.25 µg/mL (≈ 0.538 µM)
2 | C[C@@H](N1CCN(C(=O)c2nc(-c3ccccc3)no2)CC1)[C@](O)(Cn1cncn1)c1ccc(F)cc1F [Example 45, (4-((2R,3R)-3-(2,4-difluorophenyl)-3-hydroxy-4-(1H-1,2,4-triazol-1-yl)butan-2-yl)piperazin-1-yl)(3-phenyl-1,2,4-oxadiazol-5-yl)methanone] | – | 0.125 µg/mL (≈ 0.245 µM) | 0.125 µg/mL (≈ 0.245 µM) | – | – | > 128 µg/mL | – | > 128 µg/mL | – | – | – | 1 µg/mL (≈ 1.96 µM)
3 | CC(N1CCN(C(=O)c2nc(-c3ccc(Cl)cc3)no2)CC1)C(O)(Cn1cncn1)c1ccc(F)cc1F [Example 48, (3-(4-chlorophenyl-1,2,4-oxadiazol-5-yl)(4-((2R,3R)-3-(2,4-difluorophenyl)-3-hydroxy-4-(1H-1,2,4-triazol-1-yl)butan-2-yl)piperazin-1-yl)methanone] | – | 0.126 µg/mL (≈ 0.232 µM) | 0.126 µg/mL (≈ 0.232 µM) | – | – | > 128 µg/mL | – | > 128 µg/mL | – | – | – | 0.25 µg/mL (≈ 0.46 µM)
4 | COc1ccc(-c2noc(C(=O)N3CCN([C@H](C)[C@](O)(Cn4cncn4)c4ccc(F)cc4F)CC3)n2)cc1 [Example 49, (4-((2R,3R)-3-(2,4-difluorophenyl)-3-hydroxy-4-(1H-1,2,4-triazol-1-yl)butan-2-yl)piperazin-1-yl)(3-(4-methoxyphenyl)-1,2,4-oxadiazol-5-yl)methanone] | – | 0.5 µg/mL (≈ 0.927 µM) | 0.125 µg/mL (≈ 0.232 µM) | – | – | > 128 µg/mL | – | > 128 µg/mL | – | – | – | 1 µg/mL (≈ 1.85 µM)

Results, then the molecule that gave them:

Row | MIC80 [1] | MIC80 [2] | MIC80 [3] | MIC80 [4] | MIC80 [5] | MIC80 [6] | MIC80 [7] | MIC80 [8] | MIC80 [9] | MIC80 [10] | MIC80 [11] | MIC80 [12] | SMILES
5 | – | 0.5 µg/mL (≈ 0.9 µM) | 0.125 µg/mL (≈ 0.225 µM) | – | – | > 128 µg/mL | – | > 128 µg/mL | – | – | – | 4 µg/mL (≈ 7.2 µM) | COc1ccc(-c2nsc(C(=O)N3CCN([C@H](C)[C@](O)(Cn4cncn4)c4ccc(F)cc4F)CC3)n2)cc1 [Example 54, (4-((2R,3R)-3-(2,4-difluorophenyl)-3-hydroxy-4-(1H-1,2,4-triazol-1-yl)butan-2-yl)piperazin-1-yl)(3-(4-methoxyphenyl)-1,2,4-thiadiazol-5-yl)methanone]
6 | – | 1 µg/mL (≈ 1.85 µM) | 0.25 µg/mL (≈ 0.463 µM) | – | – | > 128 µg/mL | – | > 128 µg/mL | – | – | – | > 128 µg/mL | Cc1ccc(-c2nsc(C(=O)N3CCN([C@H](C)[C@](O)(Cn4cncn4)c4ccc(F)cc4F)CC3)n2)cc1 [Example 53, (4-((2R,3R)-3-(2,4-difluorophenyl)-3-hydroxy-4-(1H-1,2,4-triazol-1-yl)butan-2-yl)piperazin-1-yl)(3-p-tolyl-1,2,4-thiadiazol-5-yl)methanone]
